The record followed here is US20200038513A1, “MODULATORS OF FAK PROTEOLYSIS AND ASSOCIATED METHODS OF USE” (ARVINAS OPERATIONS, INC., priority 2018, published 2020).

Usually IC50 stands for the concentration at which inhibition is half-maximal. High values mean lower potency, low ones higher potency.

The structures appear in SMILES notation.

The target in test [1] is Fak (Homo sapiens, UniProt Q05397). Put plainly: Kinase activity assay (Reaction Biology Corp.). The format is biochemical. Set-up: purchased Reaction Biology Corp. (contract assay service). The following applies: 10 μM ATP, n = 2. The protocol:
Reactions were carried out at 10 μM ATP. IC50 values were calculated using Prism 7.0 (GraphPad).

Test [2] concerns set of 468 kinases. Description: KinomeScan kinase engagement assay (DiscoverX). The following applies: 1000 nM, 403 non-mutant kinases. Type of test: binding. The protocol:
The Kinase engagement assay was performed by DiscoverX assessing binding abilities towards a set of 468 kinases.
Examination of Target Protein Selectivity. To assess the target selectivity of exemplary compound 102 over a large panel of different kinases, a DiscoverX KINOMEScan was performed. KINOMEScan measures compound binding to individual kinases via the compounds ability to compete/displace the kinases from an immobilized support that non-selectively binds kinase active sites. […] It appears that the slight loss in inhibitory potency due to linker and VHL ligand attachment results in greater selectivity.

In test [3] the test system is androgen receptor (AR). Put plainly: Western blot validation of RPPA results in MDA-MB-231 cells. The format is cell-based, human. The conditions noted are these: 10% FBS, varying concentrations. The protocol: (§1) If not indicated otherwise, cells were seeded and grown to 80% confluency and were treated with compound or control for 24 hours. Subsequently, the growth media was removed and the cells lysed by the addition of lysis buffer (25 mM Tris, pH 7.4; 1% NP-40, 0.25% deoxycholate, 1 mM sodium vanadate, 10 mM sodium fluoride, 10 mM sodium pyrophosphate, 20 mM β-glycerophosphate and 1× complete EDTA-free protease inhibitor cocktail (Roche)). After 20 minutes the mixture was spun down at 16,000×g for 10 minutes at 4° C. to pellet insoluble materials. Protein concentration of supernatants were determined via BCA assay (Thermo Fisher) before addition of NuPAGE sample buffer containing 5% β-Me and boiling at 95° C. for 10 minutes. Equal amounts of protein were subjected to SDS-PAGE and subsequent electrophoretic transfer onto nitrocellulose membrane. Rabbit antibodies were purchased from Cell Signaling: Fak (3285), p-Fak (3283), p-Paxillin (2541), p-Akt (S473)(4060), GAPDH (2118), Androgen Receptor (5153), p-Src(Y527)(2105), p-S6RP (2215). Mouse antibodies were purchased from Cell Signaling: tubulin (3873), S6RP (2317). Secondary antibody ∝-rabbit (31460) or ∝-mouse (31444) was coupled to horseradish peroxidase and purchased from Thermo Fisher. Immunoblots were developed using enhanced chemiluminescence and visualized using a Bio-Rad Chemi-Doc MP Imaging System and quantitated with Image Lab v.5.2.1 software (Bio-Rad Laboratories). Data analysis and statistics was performed using Prism 7.0 (GraphPad).
(§2) It has been previously shown that extranuclear AR is involved in cell migration and forms a multiprotein complex comprised of filamin A/β-1 integrin/Fak/AR in NIH3T3 fibroblasts that facilitates Fak activation. […] Phosphorylation of S6RP occurs via the Src-Fak-PI3K pathway and p-S6RP is required for the initiation of translation in response to cell growth and proliferation.
(In general: Immunoblotting shows a protein as a band on a membrane.)

The subject of test [4] is p-S6RP(S240/S244). Described as above. The conditions noted are these: 10% FBS, varying concentrations. Type of test: cell-based, human. The procedure:
as §1, §2

The test system of test [5] is p-Akt(S473). Described as above. The format is cell-based, human. The following applies: 10% FBS, varying concentrations. The protocol: as §1, §2
For test [6], the system named is p-Src(Y527). The test is described as above. The format is cell-based, human. The following applies: 10% FBS, varying concentrations. The procedure: as §1, §2

Fak, sequence (Q05397 whole entry): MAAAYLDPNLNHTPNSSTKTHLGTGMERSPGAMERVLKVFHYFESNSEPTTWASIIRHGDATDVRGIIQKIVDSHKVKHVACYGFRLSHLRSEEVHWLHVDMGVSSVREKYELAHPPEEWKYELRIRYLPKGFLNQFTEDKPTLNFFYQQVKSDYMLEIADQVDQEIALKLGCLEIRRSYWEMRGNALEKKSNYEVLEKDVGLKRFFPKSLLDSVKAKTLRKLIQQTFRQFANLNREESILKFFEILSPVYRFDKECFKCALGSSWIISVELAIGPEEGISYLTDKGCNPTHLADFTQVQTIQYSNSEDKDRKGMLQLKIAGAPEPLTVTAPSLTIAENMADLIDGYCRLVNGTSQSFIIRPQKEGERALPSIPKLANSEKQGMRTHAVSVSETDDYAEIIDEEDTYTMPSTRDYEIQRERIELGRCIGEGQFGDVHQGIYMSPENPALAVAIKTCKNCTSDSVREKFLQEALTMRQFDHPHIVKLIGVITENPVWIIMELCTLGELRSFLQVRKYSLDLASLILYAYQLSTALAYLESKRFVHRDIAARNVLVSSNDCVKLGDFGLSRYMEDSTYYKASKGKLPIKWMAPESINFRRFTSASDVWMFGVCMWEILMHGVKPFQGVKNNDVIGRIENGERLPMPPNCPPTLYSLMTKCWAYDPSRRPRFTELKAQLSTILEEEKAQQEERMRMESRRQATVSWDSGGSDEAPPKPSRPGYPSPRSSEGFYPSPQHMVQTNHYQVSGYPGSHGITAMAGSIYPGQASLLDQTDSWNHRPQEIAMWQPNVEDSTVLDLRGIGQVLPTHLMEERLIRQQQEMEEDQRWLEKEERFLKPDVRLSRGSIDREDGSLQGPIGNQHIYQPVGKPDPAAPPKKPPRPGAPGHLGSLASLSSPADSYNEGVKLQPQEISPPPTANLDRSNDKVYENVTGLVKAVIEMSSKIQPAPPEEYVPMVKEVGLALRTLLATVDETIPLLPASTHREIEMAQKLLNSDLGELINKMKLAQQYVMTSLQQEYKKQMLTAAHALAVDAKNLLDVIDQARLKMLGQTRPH

As for `Cc1ncsc1-c1ccc(CNC(=O)[C@@H]2C[C@@H](O)CN2C(=O)[C@@H](NC(=O)CCOCCOc2ccc(Nc3ncc(C(F)(F)F)c(NCc4cccc(N(C)S(C)(=O)=O)c4)n3)cc2)C(C)(C)C)cc1` [Compound 102, (2S,4R)-1-((S)-3,3-dimethyl-2-(3-(2-(4-((4-((3-(N-methylmethylsulfonamido)benzyl)amino)-5-(trifluoromethyl)pyrimidin-2-yl)amino)phenoxy)ethoxy)propanamido)butanoyl)-4-hydroxy-N-(4-(4-methylthiazol-5-yl)benzyl)pyrrolidine-2-carboxamide], the IC50 in test [1] is 6.5 nM. In test [2], the “Number of Hits, S(10)” value turned out to be 7; the “Selectivity Score, S(1)” value was determined as 0.002; the “Selectivity Score, S(10)” value worked out at 0.017; the “Selectivity Score, S(35)” value is reported as 0.05. The “Number of Hits, S(35)” value in test [2] (less than 35% of control remaining) came out at 20. Also, the “AR levels (in words)” value in test [3] is “reduction of AR levels”. The “phosphorylation of S6RP (in words)” value in test [4] is “reduced phosphorylation”. Also, the “p-Akt(S473) levels (in words)” value in test [5] is “reduced levels of p-Akt(S473)”. The “p-Src(Y527) levels (in words)” value in test [6] is reported as “reduced levels”.
